This experiment concerns the target T1, Mtm1p (YGR257cp) (Saccharomyces cerevisiae, UniProt P53320).
T1 sequence (P53320 1-366): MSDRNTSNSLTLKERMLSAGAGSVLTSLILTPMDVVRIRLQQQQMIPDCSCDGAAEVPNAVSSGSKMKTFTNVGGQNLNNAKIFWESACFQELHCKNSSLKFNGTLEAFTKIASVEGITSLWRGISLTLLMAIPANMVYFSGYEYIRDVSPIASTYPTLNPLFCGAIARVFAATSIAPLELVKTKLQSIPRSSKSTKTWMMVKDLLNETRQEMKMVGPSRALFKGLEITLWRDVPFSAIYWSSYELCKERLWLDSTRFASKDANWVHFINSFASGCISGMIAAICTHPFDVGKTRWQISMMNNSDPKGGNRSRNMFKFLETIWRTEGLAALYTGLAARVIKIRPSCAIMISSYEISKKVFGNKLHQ
Briefly: stoichiometric tryptophan fluorescence quenching titration. The format is binding.

The record followed here is article PMC4723269 (Archives of biochemistry and biophysics, 2015).

One may read the Kd as the concentration at which binding is half-saturated. A lower Kd goes with a tighter complex. The molecule `Cc1ncc(COP(=O)(O)O)c(C=O)c1O` [PLP, pyridoxal 5′-phosphate] gave a Kd of 1900 ± 300 nM.
